Assay results reported in patent US8349824B2, “Triazolopyridine compounds” (Hoffmann-La Roche Inc., priority 2010, dated 2013).

These compounds were tested against T1, human PDE10A full length (Homo sapiens, UniProt Q9Y233) (assay: PDE10A Scintillation Proximity Assay (SPA), human PDE10A full length assay). Conditions: 50 nM cGMP + 50 nM [3H]-cGMP, 20 minutes at room temperature, read-out: PDE10A inhibition IC50.
T1 construct: purchased Enzo Life Science, Lausen, Switzerland SE-534
Format: biochemical
Method: The following test was carried out in order to determine the activity of the compounds of the present invention. PDE10 activity of the compounds of the present invention was determined using a Scintillation Proximity Assay (SPA)-based method similar to the one previously described (Fawcett, L. et al., Proc Natl Acad Sci USA (2000) 97(7):3702-3707).
The human PDE10A full length assay was performed in 96-well micro titer plates. The reaction mixture of 50 μl contained 20 mM HEPES pH=7.5/10 mM MgCl2/0.05 mg/ml BSA (Sigma cat. #A-7906), 50 nM cGMP (Sigma, cat. #G6129) and 50 nM [^3H]-cGMP (GE Healthcare, cat. #TRK392 S.A. 13.2Ci/mmol), 3.75 ng/well PDE10A enzyme (Enzo Life Science, Lausen, Switzerland cat #SE-534) with or without a specific test compound. A range of concentrations of the potential inhibitor was used to generate data for calculating the concentration of inhibitor resulting in 50% of the effect (e.g. IC50, the concentration of the competitor inhibiting PDE10A activity by 50%). Non-specific activity was tested without the enzyme. The reaction was initiated by the addition of the substrate solution (cGMP and [^3H]-cGMP) and allowed to progress for 20 minutes at room temperature. The reaction was terminated by adding 25 μl of YSi-SPA scintillation beads (GE Healthcare, cat. #RPNQ0150) in 18 mM zinc sulphate solution (stop reagent). After 1 h under shaking, the plate was centrifuged one minute at 170 g to allow beads to settle. Afterwards, radioactive counts were measured on a Perkin Elmer TopCount Scintillation plate reader.

T1 sequence (Q9Y233 1-779 isoform Q9Y233-1): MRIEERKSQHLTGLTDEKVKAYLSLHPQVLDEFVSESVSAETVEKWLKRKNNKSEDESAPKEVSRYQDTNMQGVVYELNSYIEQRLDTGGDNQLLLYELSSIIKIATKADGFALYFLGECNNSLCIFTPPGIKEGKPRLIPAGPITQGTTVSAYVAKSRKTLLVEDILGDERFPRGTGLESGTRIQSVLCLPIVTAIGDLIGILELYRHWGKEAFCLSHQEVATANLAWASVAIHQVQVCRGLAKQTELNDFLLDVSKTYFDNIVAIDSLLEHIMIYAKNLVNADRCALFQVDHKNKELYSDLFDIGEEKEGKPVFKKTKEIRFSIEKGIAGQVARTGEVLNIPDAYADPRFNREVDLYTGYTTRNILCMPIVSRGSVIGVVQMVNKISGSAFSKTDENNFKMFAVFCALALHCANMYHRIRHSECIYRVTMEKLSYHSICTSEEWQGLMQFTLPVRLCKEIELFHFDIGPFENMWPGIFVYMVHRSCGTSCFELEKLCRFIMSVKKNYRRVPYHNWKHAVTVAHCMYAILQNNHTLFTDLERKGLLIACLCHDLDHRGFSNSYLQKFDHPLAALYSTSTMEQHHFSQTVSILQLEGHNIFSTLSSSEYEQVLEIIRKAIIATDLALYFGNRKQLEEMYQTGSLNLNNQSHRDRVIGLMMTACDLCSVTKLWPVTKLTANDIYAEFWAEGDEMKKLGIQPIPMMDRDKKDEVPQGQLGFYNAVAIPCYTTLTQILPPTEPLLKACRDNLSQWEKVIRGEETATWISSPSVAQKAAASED

SMILES | IC50
CN(CCO)C(=O)c1cnn(C)c1C(=O)Nc1ccn2nc(N3CCOCC3)nc2c1 [Example 94, 2-Methyl-2H-pyrazole-3,4-dicarboxylic acid 4-[(2-hydroxy-ethyl)-methyl-amide]3-[(2-morpholin-4-yl-[1,2,4]triazolo[1,5-a]pyridin-7-yl)-amide]] | 20.4 nM
COC(=O)CN(C)C(=O)c1cnn(C)c1C(=O)Nc1ccn2nc(N3CCOCC3)nc2c1 [Example 95, {Methyl-[1-methyl-5-(2-morpholin-4-yl-[1,2,4]triazolo[1,5-a]pyridin-7-ylcarbamoyl)-1H-pyrazole-4-carbonyl]-amino}-acetic acid methyl ester] | 50.4 nM
Cn1ncc(C(=O)NC2CC2)c1C(=O)Nc1ccn2nc(N3CCOCC3)nc2c1 [Example 113, 2-Methyl-2H-pyrazole-3,4-dicarboxylic acid 4-cyclopropylamide 3-[(2-morpholin-4-yl-[1,2,4]triazolo[1,5-a]pyridin-7-yl)-amide]] | 19.1 nM
CN(CCF)c1nc2cc(NC(=O)c3c(C(=O)N4CCCC4)cnn3C)ccn2n1 [Example 115, 2-Methyl-4-(pyrrolidine-1-carbonyl)-2H-pyrazole-3-carboxylic acid {2-[(2-fluoro-ethyl)-methyl-amino]-[1,2,4]triazolo[1,5-a]pyridin-7-yl}-amide] | 2.29 nM
Cn1ncc(C(=O)N2CCOCC2)c1C(=O)Nc1ccn2nc(-c3cccc(F)n3)nc2c1 [Example 121, 2-Methyl-4-(morpholine-4-carbonyl)-2H-pyrazole-3-carboxylic acid [2-(6-fluoro-pyridin-2-yl)-[1,2,4]triazolo[1,5-a]pyridin-7-yl]-amide] | 5.06 nM
Cn1ncc(C(=O)N2CC3(COC3)C2)c1C(=O)Nc1ccn2nc(N3CCCC3)nc2c1 [Example 122, 2-Methyl-4-(2-oxa-6-aza-spiro[3.3]heptane-6-carbonyl)-2H-pyrazole-3-carboxylic acid (2-pyrrolidin-1-yl-[1,2,4]triazolo[1,5-a]pyridin-7-yl)-amide] | 6.21 nM
CN(c1nc2cc(NC(=O)c3c(C(=O)O)cnn3C)ccn2n1)C1CC1 [Example 125, 5-[2-(Cyclopropyl-methyl-amino)-[1,2,4]triazolo[1,5-a]pyridin-7-ylcarbamoyl]-1-methyl-1H-pyrazole-4-carboxylic acid] | 54 nM
CN(C(=O)c1cnn(C)c1C(=O)Nc1ccn2nc(N(C)C3CC3)nc2c1)C1CC1 [Example 126, 2-Methyl-2H-pyrazole-3,4-dicarboxylic acid 4-(cyclopropyl-methyl-amide)3-{[2-(cyclopropyl-methyl-amino)-[1,2,4]triazolo[1,5-a]pyridin-7-yl]-amide}] | 0.49 nM
CN(c1nc2cc(NC(=O)c3c(C(=O)N4CCC4)cnn3C)ccn2n1)C1CC1 [Example 127, 4-(Azetidine-1-carbonyl)-2-methyl-2H-pyrazole-3-carboxylic acid [2-(cyclopropyl-methyl-amino)-[1,2,4]triazolo[1,5-a]pyridin-7-yl]-amide] | 0.73 nM
CN(c1nc2cc(NC(=O)c3c(C(=O)N4CCOCC4)cnn3C)ccn2n1)C1CC1 [Example 128, 2-Methyl-4-(morpholine-4-carbonyl)-2H-pyrazole-3-carboxylic acid [2-(cyclopropyl-methyl-amino)-[1,2,4]triazolo[1,5-a]pyridine-7-yl]-amide] | 3.37 nM
Cn1ncc(C(=O)N2CCN3CCC2C3)c1C(=O)Nc1ccn2nc(-c3ccccc3)nc2c1 (stereo not drawn) [Example 129, 4-(1,4-Diaza-bicyclo[3.2.1]octane-4-carbonyl)-2-methyl-2H-pyrazole-3-carboxylic acid (2-phenyl-[1,2,4]triazolo[1,5-a]pyridin-7-yl)-amide] | 1.1 nM

Continued, values first:

IC50 | SMILES
0.59 nM | COCCN(C)C(=O)c1cnn(C)c1C(=O)Nc1ccn2nc(-c3cccc(OCF)c3)nc2c1 [Example 89, 2-Methyl-2H-pyrazole-3,4-dicarboxylic acid 3-{[2-(3-fluoromethoxy-phenyl)-[1,2,4]triazolo[1,5-a]pyridin-7-yl]-amide} 4-[(2-methoxy-ethyl)-methyl-amide]]
1.02 nM | Cn1ncc(C(=O)N2CCC2)c1C(=O)Nc1ccn2nc(-c3cccc(OCCF)c3)nc2c1 [Example 90, 4-(Azetidine-1-carbonyl)-2-methyl-2H-pyrazole-3-carboxylic acid {2-[3-(2-fluoro-ethoxy)-phenyl]-[1,2,4]triazolo[1,5-a]pyridin-7-yl}-amide]
0.86 nM | Cn1ncc(C(=O)N2CCC2)c1C(=O)Nc1ccn2nc(-c3cccc(OCF)c3)nc2c1 [Example 91, 4-(Azetidine-1-carbonyl)-2-methyl-2H-pyrazole-3-carboxylic acid [2-(3-fluoromethoxy-phenyl)-[1,2,4]triazolo[1,5-a]pyridin-7-yl]-amide]
0.98 nM | CN(CCO)C(=O)c1cnn(C)c1C(=O)Nc1ccn2nc(-c3ccccc3)nc2c1 [Example 92, 2-Methyl-2H-pyrazole-3,4-dicarboxylic acid 4-[(2-hydroxy-ethyl)-methyl-amide]3-[(2-phenyl-[1,2,4]triazolo[1,5-a]pyridin-7-yl)-amide]]
2.16 nM | COC(=O)CN(C)C(=O)c1cnn(C)c1C(=O)Nc1ccn2nc(-c3ccccc3)nc2c1 [Example 93, {Methyl-[1-methyl-5-(2-phenyl-[1,2,4]triazolo[1,5-a]pyridin-7-ylcarbamoyl)-1H-pyrazole-4-carbonyl]-amino}-acetic acid methyl ester]
2.12 nM | Cn1ncc(C(=O)NCCF)c1C(=O)Nc1ccn2nc(-c3ccccc3)nc2c1 [Example 96, 2-Methyl-2H-pyrazole-3,4-dicarboxylic acid 4-[(2-fluoro-ethyl)-amide]3-[(2-phenyl[1,2,4]triazolo[1,5-a]pyridin-7-yl)-amide]]
0.31 nM | COc1ccccc1-c1nc2cc(NC(=O)c3c(C(=O)N(C)C)cnn3C)ccn2n1 [Example 97, 2-Methyl-2H-pyrazole-3,4-dicarboxylic acid 4-dimethylamide 3-{[2-(2-methoxy-phenyl)-[1,2,4]triazolo[1,5-a]pyridin-7-yl]-amide}]
0.67 nM | CCN(C)C(=O)c1cnn(C)c1C(=O)Nc1ccn2nc(-c3ccccc3OC)nc2c1 [Example 98, 2-Methyl-2H-pyrazole-3,4-dicarboxylic acid 4-(ethyl-methyl-amide)3-{[2-(2-methoxy-phenyl)-[1,2,4]triazolo[1,5-a]pyridin-7-yl]-amide}]
0.74 nM | COCCN(C)C(=O)c1cnn(C)c1C(=O)Nc1ccn2nc(-c3ccccc3OC)nc2c1 [Example 99, 2-Methyl-2H-pyrazole-3,4-dicarboxylic acid 4-[(2-methoxy-ethyl)-methyl-amide]3-{[2-(2-methoxy-phenyl)-[1,2,4]triazolo[1,5-a]pyridin-7-yl]-amide}]
0.65 nM | CCN(C)C(=O)c1cnn(C)c1C(=O)Nc1ccn2nc(-c3ccccc3OCCF)nc2c1 [Example 101, 2-Methyl-2H-pyrazole-3,4-dicarboxylic acid 4-(ethyl-methyl-amide)3-({2-[2-(2-fluoro-ethoxy)-phenyl]-[1,2,4]triazolo[1,5-a]pyridin-7-yl}-amide)]
15.6 nM | CN1CCN(C(=O)c2cnn(C)c2C(=O)Nc2ccn3nc(-c4cccc(F)c4)nc3c2)CC1 [Example 108, 2-Methyl-4-(4-methyl-piperazine-1-carbonyl)-2H-pyrazole-3-carboxylic acid [2-(3-fluoro-phenyl)-[1,2,4]triazolo[1,5-a]pyridin-7-yl]-amide]
4.66 nM | Cn1ncc(C(=O)N2CCC2)c1C(=O)Nc1ccn2nc(-c3cccnc3F)nc2c1 [Example 110, 4-(Azetidine-1-carbonyl)-2-methyl-2H-pyrazole-3-carboxylic acid [2-(2-fluoro-pyridin-3-yl)-[1,2,4]triazolo[1,5-a]pyridin-7-yl]-amide]
1.11 nM | CCN(C)C(=O)c1cnn(C)c1C(=O)Nc1ccn2nc(-c3cccnc3)nc2c1 [Example 116, 2-Methyl-2H-pyrazole-3,4-dicarboxylic acid 4-(ethyl-methyl-amide)3-[(2-pyridin-3-yl-[1,2,4]triazolo[1,5-a]pyridin-7-yl)-amide]]
0.34 nM | Cn1ncc(C(=O)N2CCC2)c1C(=O)Nc1ccn2nc(-c3ccccc3OCCF)nc2c1 [Example 130, 4-(Azetidine-1-carbonyl)-2-methyl-2H-pyrazole-3-carboxylic acid {2-[2-(2-fluoro-ethoxy)-phenyl]-[1,2,4]triazolo[1,5-a]pyridin-7-yl}-amide]
0.9 nM | Cn1ncc(C(=O)N2CCOCC2)c1C(=O)Nc1ccn2nc(-c3ccccc3OCCF)nc2c1 [Example 131, 2-Methyl-4-(morpholine-4-carbonyl)-2H-pyrazole-3-carboxylic acid {2-[2-(2-fluoro-ethoxy)-phenyl]-[1,2,4]triazolo[1,5-a]pyridin-7-yl}-amide]
1.02 nM | COCCN(C)C(=O)c1cnn(C)c1C(=O)Nc1ccn2nc(-c3ccccc3OCCF)nc2c1 [Example 132, 2-Methyl-2H-pyrazole-3,4-dicarboxylic acid 3-({2-[2-(2-fluoro-ethoxy)-phenyl]-[1,2,4]triazolo[1,5-a]pyridin-7-yl}-amide) 4-[(2-methoxy-ethyl)-methyl-amide]]
